Assay results reported in patent US10350188B2, “Use of Neu1 sialidase inhibitors in the treatment of cancer” (priority 2011, dated 2019).

Columns and labels:
Neu1 sialidase = Neu1 sialidase (Mus musculus, UniProt O35657); test: LPS-induced Neu1 sialidase activity in live BMA macrophage cells (4-MUNANA); format: cell-based; design: endogenous in cells; host or cells: BMA macrophage cells; conditions: LPS-induced Neu1 sialidase activity, live BMA macrophage cells
Method: TLR-expressing BMA macrophage cells were grown on 12 mm circular glass slides in culture media containing DMEM supplemented with 10% fetal calf serum. […] Fluorescent images were taken after 2-3 minutes using epi-fluorescent microscopy (Zeiss Imager M2, 40× objective).
This recently developed assay was used to detect sialidase activity on the surface of viable cells. […] The inhibitory potency of a series of amide-linked C9 modified DANA (2-deoxy-2,3-dehydro-D-N-acetylneuraminic add) analogues on lipopolysaccharide (LPS)-induced Neu1 sialidase activity was assessed in live BMA macrophage cells.

MiaPaCa-2 cells = test: Cell viability of MiaPaCa-2 pancreatic cancer cells in culture (MTT or WST-1, 72 hrs); format: cell-based, human; conditions: for LD50 MiaPaCa-2: oseltamivir phosphate analogues (TD), WST-1, 72 hrs; for Chemo-drug LD50 / Chemo-drug sensitivity with oseltamivir phosphate (fold increase): MiaPaCa-2; for Chemo-drug LD50: MTT, 72 hrs
PANC-1 cells = test: Cell viability of PANC-1 pancreatic cancer cells in culture (MTT or WST-1, 72 hrs); format: cell-based, human; conditions: for LD50 PANC-1: oseltamivir phosphate analogues (TD), WST-1, 72 hrs; for Chemo-drug LD50 / Chemo-drug sensitivity with oseltamivir phosphate (fold increase): PANC-1; for Chemo-drug LD50: MTT, 72 hrs
BxPC-3 cells = test: Cell viability of BxPC-3 pancreatic cancer cells in culture (MTT or WST-1, 72 hrs); format: cell-based, human; conditions: BxPC-3; for Chemo-drug LD50: MTT, 72 hrs
[1] = test system: MiaPaCa-2-eGFP pancreatic cancer cells implanted in RAG2/Cγ double mutant Balbc xenograft mice; test: MiaPaCa-2-eGFP pancreatic cancer xenograft in RAG2/Cγ double mutant Balbc mice; format: in vivo, mouse; conditions: for Liver metastasis percent inhibition: vs untreated day 51
Method: Tumour measurements were taken twice a week.
MiaPaCa-2-eGFP pancreatic cancer cells at 1.5×10^6 in 0.2 mL were implanted subcutaneously in the right back flank of these mice. Each mouse in the study was identified by an ear punch number. Twice a week each mouse following implantation of the cancer cells was monitored for tumour volume growth (length and width) at the site of implantation, body weights, and body condition scoring. Scoring the body condition of rodents is a non-invasive method for assessing health and establishing endpoints for adults where body weight is not a viable monitoring tool, such as with tumour models. Body condition scores (BC) range from 1(emaciation) to 5 (obesity). An anticipated BCS of 2—under conditioned—or lower, requires justification in the protocol. Scores are determined by frequent visual and hands-on examination of each animal. The hands-on evaluation is done by gently holding the mouse by the base of the tail and passing a finger over the sacroiliac bones. The findings are matched to the descriptions and diagrams of BC ranges to determine a score. Scores are documented for each animal.

[2] = co-treatment oseltamivir phosphate 730 μM
[3] = co-treatment oseltamivir phosphate 1460 μM
[4] = day 62, tamoxifen 0.1 mg/kg alone or with oseltamivir phosphate 100 mg/kg daily
[5] = day 66, tamoxifen 0.1 mg/kg alone or with oseltamivir phosphate 100 mg/kg daily
[6] = chemo-drug + oseltamivir phosphate 10 mg/kg daily, Altima day 70, Abraxane day […]
[7] = chemo-drug alone, Altima 100 mg/kg day 70, Abraxane 200 mg/kg day 87
[8] = day 48, chemo-drug (alimta 100, abraxane 200 mg/kg) + oseltamivir phosphate 10 mg/kg daily i.p.
[9] = day 48, chemo-drug alone (alimta 100 mg/kg, abraxane 200 mg/kg i.p.)
[10] = day 63, chemo-drug (alimta 100, abraxane 200 mg/kg) + oseltamivir phosphate 10 mg/kg daily
[11] = day 63, chemo-drug alone (alimta 100 mg/kg, abraxane 200 mg/kg)

Compound `CCC(C)C(=O)NC[C@H](O)[C@H](O)C1OC(C(=O)O)=CC(O)[C@H]1NC(C)=O` (stereo partly shown) [B2] has an IC50 (Neu1 sialidase) of 29.7 µM.

`CCC(CC)O[C@@H]1C=C(C(=O)[O-])[C@H]2OC(C)(C)O[C@H]2[C@H]1NC(C)=O.[Na+]` [A6, Sodium; 7-acetylamino-6-(1-ethyl-propoxy)-2,2-dimethyl-3a,6,7,7a-tetrahydro-benzo[1,3]dioxole-4-carboxylate] was tested, and the “LD50 MiaPaCa-2” value (MiaPaCa-2 cells) was >2000 µM and the “LD50 PANC-1” value (PANC-1 cells) was >2000 µM.

`CC(=O)N[C@@H]1C(O)C=C(C(=O)O)OC1[C@@H](O)[C@@H](O)CNC(=O)C1CC1` (stereo partly shown) [B9] gave an IC50 (Neu1 sialidase) of 1120 µM.

In the case of `CC(=O)N[C@@H]1CC[C@@](O)(C(=O)[O-])[C@H]2OC(C)(C)O[C@@H]12.[Na+]`, the “LD50 MiaPaCa-2” value (MiaPaCa-2 cells) is reported as 2.1 µM and the “LD50 PANC-1” value (PANC-1 cells) is reported as >1000 µM.

`CC/C(=C(\c1ccccc1)c1ccc(OCCN(C)C)cc1)c1ccccc1` [tamoxifen, Tamoxifen] was tested, and the “Chemo-drug LD50” value (MiaPaCa-2 cells; [2]) was 0.8 µM, the “Chemo-drug LD50” value (MiaPaCa-2 cells; [3]) was 0.078 µM and the “Chemo-drug LD50” value (MiaPaCa-2 cells; oseltamivir phosphate 0 μM) was 7.0 µM. For the same compound, the “Chemo-drug sensitivity with oseltamivir phosphate (fold increase)” value (“Chemo-drug sensitivity … (fold increase)” for short) (MiaPaCa-2 cells; oseltamivir phosphate 730 μM) was 9 fold increase, the “Chemo-drug sensitivity … (fold increase)” value (MiaPaCa-2 cells; oseltamivir phosphate 1460 μM) was 90 fold increase and the “Chemo-drug LD50” value (PANC-1 cells; [2]) was 0.8 µM. For the same compound, the “Chemo-drug LD50” value (PANC-1 cells; [3]) was 0.078 µM, the “Chemo-drug LD50” value (PANC-1 cells; oseltamivir phosphate 0 μM) was 12.5 µM and the “Chemo-drug sensitivity … (fold increase)” value (PANC-1 cells; oseltamivir phosphate 730 μM) was 16 fold increase. For the same compound, the “Chemo-drug sensitivity … (fold increase)” value (PANC-1 cells; oseltamivir phosphate 1460 μM) was 160 fold increase, the “Chemo-drug LD50” value (BxPC-3 cells; [2]) was 3 µM and the “Chemo-drug LD50” value (BxPC-3 cells; [3]) was 0.078 µM. For the same compound, the “Chemo-drug LD50” value (BxPC-3 cells; oseltamivir phosphate 0 μM) was 9 µM, the “Chemo-drug sensitivity … (fold increase)” value (BxPC-3 cells; oseltamivir phosphate 730 μM) was 3 fold increase and the “Chemo-drug sensitivity … (fold increase)” value (BxPC-3 cells; oseltamivir phosphate 1460 μM) was 115 fold increase. The “% Inhibition To untreated” value ([1]; day 59, tamoxifen 0.1 mg/kg alone or with oseltamivir phosphate 100 mg/kg daily) was 57%, the Tumour volume ([1]; day 59, tamoxifen 0.1 mg/kg i.p. alone or with oseltamivir phosphate 100 mg/kg i.p. daily) was 960 ± 208 (4) mm^3 and the “% Inhibition To untreated” value [1, 4] was 21%. The Tumour volume [1, 4] was 1738 ± 328 (4) mm^3, the “% Inhibition To untreated” value [1, 5] was 0% and the Tumour volume [1, 5] was 2650 ± 360 (3) mm^3. For the same compound, the “Survival of tumour bearing mice” value ([1]; tamoxifen 0.1 mg/kg alone or with oseltamivir phosphate 100 mg/kg daily, untreated control day 60) was 66 days.

`CC(=O)N[C@@H]1C(O)C=C(C(=O)O)OC1[C@@H](O)[C@@H](O)CNC(=O)C(C)(C)C` (stereo partly shown) [B10] showed an IC50 (Neu1 sialidase) of 411 µM.

`Nc1nc2[nH]cc(CCc3ccc(C(=O)N[C@@H](CCC(=O)O)C(=O)O)cc3)c2c(=O)[nH]1` [alimta, Pemetrexed] was tested, and the “Survival of tumour bearing mice” value ([1]; chemo-drug (Alimta 100, Abraxane 200 mg/kg) + oseltamivir phosphate 10 mg/kg daily, untreated control day 51) was 70 days, the “Liver Metastasis (avg no. nodules)” value ([1]; chemo-drug + oseltamivir phosphate 10 mg/kg daily, Altima 100 mg/kg day 70, Abraxane 200 mg/kg day […]) was 3 and the “Metastases (size, mm)” value [1, 6] was 0.2-0.5 mm. The “Liver metastasis percent inhibition” value [1, 6] was 91%, the “Liver Metastasis (avg no. nodules)” value [1, 7] was 5 and the “Metastases (size, mm)” value [1, 7] was 0.2-1.0 mm. For the same compound, the “Liver metastasis percent inhibition” value [1, 7] was 85%, the “Survival of tumour bearing mice” value ([1]; chemo-drug monotherapy (Alimta 100 mg/kg, Abraxane 200 mg/kg), untreated control day 51) was 70 days and the “% Inhibition To untreated” value [1, 8] was 77%. The Tumour volume [1, 8] was 189 mm^3, the “% Inhibition To untreated” value ([1]; day 48, chemo-drug (alimta 100, abraxane 200 mg/kg) + oseltamivir phosphate 10 mg/kg daily i.p., listed as Almita) was 77% and the “% Inhibition To untreated” value [1, 9] was 72%. The Tumour volume [1, 9] was 225 mm^3, the “% Inhibition To untreated” value [1, 10] was 3% and the Tumour volume [1, 10] was 787 mm^3. The “% Inhibition To untreated” value [1, 11] was 40% and the Tumour volume [1, 11] was 482 mm^3.

In the case of `CC(=O)N[C@H]1[C@H](O)C=C(C(=O)[O-])C[C@@H]1N.[Na+]` [A2, Sodium; 4-acetylamino-5-amino-3-hydroxy-cyclohex-1-enecarboxylate], the “LD50 MiaPaCa-2” value (MiaPaCa-2 cells) is reported as 1.97 µM and the “LD50 PANC-1” value (PANC-1 cells) is reported as 0.01 µM.

Work on `CC(=O)N[C@@H]1C(O)C=C(C(=O)O)OC1[C@@H](O)[C@@H](O)CNC(=O)C1CCCCC1` (stereo partly shown) [B3] yielded an IC50 (Neu1 sialidase) of 0.0039 µM.

In the case of `CCOC1C(C(=O)[O-])=C[C@@H](O)[C@@H](NC(C)=O)[C@@H]1O.[Na+]` (stereo partly shown) [A1, Sodium; 4-acetylamino-6-ethoxy-3,5-dihydroxy-cyclohex-1-enecarboxylate], the “LD50 MiaPaCa-2” value (MiaPaCa-2 cells) is reported as 132 µM and the “LD50 PANC-1” value (PANC-1 cells) is reported as 848 µM.

`CC(=O)N[C@@H]1C(O)C=C(C(=O)O)OC1[C@@H](O)[C@@H](O)CNC(=O)C(C)C` (stereo partly shown) [B7] gave an IC50 (Neu1 sialidase) of 683 µM.

`CC(=O)N[C@H]1[C@@H]2OC(C)(C)O[C@@H]2C(C(=O)[O-])=C[C@H]1O.[Na+]` was tested, and the “LD50 MiaPaCa-2” value (MiaPaCa-2 cells) was 2.8 µM and the “LD50 PANC-1” value (PANC-1 cells) was 349 µM.

With `CC(=O)N[C@@H]1/C(=N/O)C=C(C(=O)[O-])[C@H]2OC(C)(C)O[C@H]21.[Na+]` [A5, Sodium; 7-acetylamino-6-hydroxyimino-2,2-dimethyl-3a,6,7,7a-tetrahydro-benzo[1,3]dioxole-4-carboxylate] the “LD50 MiaPaCa-2” value (MiaPaCa-2 cells) was 24 µM and the “LD50 PANC-1” value (PANC-1 cells) was 3 µM.

`CCCCC(=O)NC[C@H](O)[C@H](O)C1OC(C(=O)O)=CC(O)[C@H]1NC(C)=O` (stereo partly shown) [B5] gave an IC50 (Neu1 sialidase) of 1.45 µM.

`O=c1[nH]cc(F)c(=O)[nH]1` [5-fluoruracil, Fluorouracil] was tested, and the “Chemo-drug LD50” value (MiaPaCa-2 cells; [2]) was 0.6 µM, the “Chemo-drug LD50” value (MiaPaCa-2 cells; [3]) was 0.078 µM and the “Chemo-drug LD50” value (MiaPaCa-2 cells; oseltamivir phosphate 0 μM) was 2.20 µM. For the same compound, the “Chemo-drug sensitivity … (fold increase)” value (MiaPaCa-2 cells; oseltamivir phosphate 730 μM) was 4 fold increase, the “Chemo-drug sensitivity … (fold increase)” value (MiaPaCa-2 cells; oseltamivir phosphate 1460 μM) was 28 fold increase and the “Chemo-drug LD50” value (PANC-1 cells; [2]) was 0.8 µM. For the same compound, the “Chemo-drug LD50” value (PANC-1 cells; [3]) was 0.078 µM, the “Chemo-drug LD50” value (PANC-1 cells; oseltamivir phosphate 0 μM) was 3.1 µM and the “Chemo-drug sensitivity … (fold increase)” value (PANC-1 cells; oseltamivir phosphate 730 μM) was 4 fold increase. For the same compound, the “Chemo-drug sensitivity … (fold increase)” value (PANC-1 cells; oseltamivir phosphate 1460 μM) was 40 fold increase, the “Chemo-drug LD50” value (BxPC-3 cells; [2]) was 0.78 µM and the “Chemo-drug LD50” value (BxPC-3 cells; [3]) was 0.078 µM. The “Chemo-drug LD50” value (BxPC-3 cells; oseltamivir phosphate 0 μM) was 12.5 µM, the “Chemo-drug sensitivity … (fold increase)” value (BxPC-3 cells; oseltamivir phosphate 730 μM) was 16 fold increase and the “Chemo-drug sensitivity … (fold increase)” value (BxPC-3 cells; oseltamivir phosphate 1460 μM) was 160 fold increase.

Compound `CC(=O)N[C@@H]1C(O)C=C(C(=O)O)OC1[C@@H](O)[C@@H](O)CNC(=O)C1CCCC1` (stereo partly shown) [B6] has an IC50 (Neu1 sialidase) of 76.6 µM.

Compound `CCC(CC)C(=O)NC[C@H](O)[C@H](O)C1OC(C(=O)O)=CC(O)[C@H]1NC(C)=O` (stereo partly shown) [B8] has an IC50 (Neu1 sialidase) of 1050 µM.

For `CCCC(=O)NC[C@H](O)[C@H](O)C1OC(C(=O)O)=CC(O)[C@H]1NC(C)=O` (stereo partly shown) [B1], the IC50 (Neu1 sialidase) was 0.0138 µM.

`CC(=O)NC[C@H](O)[C@H](O)C1OC(C(=O)O)=CC(O)[C@H]1NC(C)=O` (stereo partly shown) [B4] gave an IC50 (Neu1 sialidase) of 2.98 µM.
